# Experimental data reported in the NIST ThermoML archive (doi:10.1016/j.fluid.2007.07.013).
# Numbers after ± are expanded uncertainties.
# Details: Liquid
smiles,measurement,setting,value
CCSC [2-thiabutane],vapor or sublimation pressure,247.76 K,1 kPa
same,vapor or sublimation pressure,272.96 K,6 kPa
same,vapor or sublimation pressure,293.23 K,17 ± 12 kPa
same,vapor or sublimation pressure,293.41 K,17 ± 12 kPa
same,vapor or sublimation pressure,313.33 K,40 ± 12 kPa
same,vapor or sublimation pressure,313.35 K,40 ± 12 kPa
CS [methanethiol],vapor or sublimation pressure,243.19 K,20 ± 12 kPa
same,vapor or sublimation pressure,258 K,42 ± 12 kPa
same,vapor or sublimation pressure,272.98 K,80 ± 12 kPa
same,vapor or sublimation pressure,293.35 K,170 ± 12 kPa
same,vapor or sublimation pressure,298.23 K,200 ± 12 kPa
S=C=S [carbon disulfide],vapor or sublimation pressure,273.08 K,17 ± 12 kPa
same,vapor or sublimation pressure,298.4 K,49 ± 12 kPa
same,vapor or sublimation pressure,323.5 K,116 ± 12 kPa
same,vapor or sublimation pressure,348.45 K,240 ± 12 kPa
CSC [2-thiapropane],vapor or sublimation pressure,252.89 K,8 ± 12 kPa
same,vapor or sublimation pressure,253.06 K,8 ± 12 kPa
same,vapor or sublimation pressure,272.76 K,22 ± 12 kPa
same,vapor or sublimation pressure,278.46 K,29 ± 12 kPa
same,vapor or sublimation pressure,293.16 K,53 ± 12 kPa
same,vapor or sublimation pressure,293.43 K,54 ± 12 kPa
same,vapor or sublimation pressure,313.3 K,112 ± 12 kPa
same,vapor or sublimation pressure,313.43 K,112 ± 12 kPa
CCS [ethanethiol],vapor or sublimation pressure,272.94 K,25 ± 12 kPa
same,vapor or sublimation pressure,293.36 K,59 ± 12 kPa
same,vapor or sublimation pressure,313.41 K,121 ± 12 kPa
S [hydrogen sulfide],vapor or sublimation pressure,273.08 K,1033 ± 17 kPa
same,vapor or sublimation pressure,298.4 K,2024 ± 26 kPa
same,vapor or sublimation pressure,323.5 K,3564 ± 44 kPa
same,vapor or sublimation pressure,348.45 K,5812 ± 72 kPa
